Assay results taken from PubChem BioAssay (NCI).
Values joined by “and” are separate entries in the source; they are usually repeats but may differ in a detail not shown here. Equal values may be shown once.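 Briefly, cells in 96-well plates were exposed to five compound concentrations for 48 h, and endpoints were estimated by linear interpolation. Abbreviation: GI50, concentration required for 50% inhibition of growth. TGI: concentration producing complete growth inhibition.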

Tests used:
Assay in all cases: inhibition of tumour cell growth, NCI panel, 48 h
[1] = tested on: MCF7 breast
[2] = tested on: NCI-H460 lung
[3] = tested on: HOP-62 NSCLC
[4] = tested on: K-562 leukemia
[5] = tested on: OVCAR-8 ovarian
[6] = tested on: M14 melanoma
[7] = tested on: LOX IMVI melanoma
[8] = tested on: COLO 205 colon
[9] = tested on: 786-0 renal
[10] = tested on: BT-549 breast
[11] = tested on: HOP-92 NSCLC
[12] = tested on: SK-OV-3 ovarian
[13] = tested on: KM12 colon
[14] = tested on: SNB-75 CNS
[15] = tested on: A549 NSCLC
[16] = tested on: SNB-19 CNS
[17] = tested on: HCT-116 colon
[18] = tested on: MDA-MB-435
[19] = tested on: SK-MEL-2 melanoma
[20] = tested on: PC-3 prostate
[21] = tested on: IGROV1 ovarian
[22] = tested on: MDA-MB-231 breast
[23] = tested on: OVCAR-5 ovarian
[24] = tested on: SF-268 CNS
[25] = tested on: HCC-2998 colon
[26] = tested on: OVCAR-4 ovarian
[27] = tested on: MDA-N
[28] = tested on: HS 578T breast
[29] = tested on: UACC-257 melanoma
[30] = tested on: TK-10 renal
[31] = tested on: OVCAR-3 ovarian
[32] = tested on: EKVX NSCLC
[33] = tested on: NCI-H522 lung
[34] = tested on: HL-60(TB) leukemia
[35] = tested on: DU-145 prostate
[36] = tested on: ACHN renal
[37] = tested on: SF-539 CNS
[38] = tested on: SN12C renal
[39] = tested on: HT29 colon
[40] = tested on: T-47D breast
[41] = tested on: SK-MEL-5 melanoma
[42] = tested on: U251 CNS
[43] = tested on: A498 renal
[44] = tested on: HCT-15 colon
[45] = tested on: SK-MEL-28 melanoma
[46] = tested on: SR leukemia
[47] = tested on: UACC-62 melanoma
[48] = tested on: SW-620 colon
[49] = tested on: RXF 393 renal
[50] = tested on: UO-31 renal
[51] = tested on: CAKI-1 renal
[52] = tested on: NCI-H226 lung
[53] = tested on: SF-295 CNS
[54] = tested on: NCI-H23 lung
[55] = tested on: CCRF-CEM leukemia
[56] = tested on: NCI/ADR-RES ovarian
[57] = tested on: MOLT-4 leukemia
[58] = tested on: MALME-3M melanoma
[59] = tested on: RPMI-8226 leukemia

CCOC(=O)Nc1cc2c(c(N)n1)N=C(c1ccc(OC)cc1)CN2
GI50 [1]: 0.0264 µM
TGI [1]: > 100 µM
GI50 [2]: 0.012 µM
TGI [2]: 0.256 µM
TGI [3]: 1.49 µM
TGI [4]: 1.32 µM
TGI [5]: > 100 µM
TGI [6]: 19.1 µM
GI50 [7]: 0.0144 µM
TGI [7]: 3.15 µM
TGI [8]: 0.196 µM and 0.146 µM
TGI [9]: 1.9 µM
TGI [10]: 80.5 µM
TGI [11]: 48.2 µM
GI50 [12]: 0.0475 µM
TGI [12]: 18.7 µM
TGI [13]: > 100 µM
TGI [14]: 0.277 µM
GI50 [15]: 0.0204 µM
TGI [15]: 2.34 µM
TGI [16]: 0.659 µM
TGI [17]: 1.31 µM
TGI [18]: 0.000324 µM
TGI [19]: 0.0838 µM
GI50 [20]: 0.00142 µM
TGI [20]: 0.0521 µM and 0.48 µM
GI50 [21]: 0.0355 µM
TGI [21]: 0.0741 µM
GI50 [22]: 0.00386 µM
TGI [22]: 0.392 µM and 0.0787 µM
TGI [23]: 21.8 µM
TGI [24]: > 100 µM
GI50 [25]: 0.0185 µM
TGI [25]: 0.178 µM
GI50 [26]: 11.4 µM
TGI [26]: 49.4 µM
TGI [27]: 0.0014 µM
TGI [28]: 0.00932 µM
GI50 [29]: 12.9 µM
TGI [29]: 36.5 µM
GI50 [30]: 0.837 µM
TGI [30]: 90.1 µM
TGI [31]: 0.0156 µM
TGI [32]: > 100 µM
TGI [33]: 0.00636 µM
TGI [34]: 0.00595 µM
TGI [35]: 33.3 µM
TGI [36]: 35.7 µM
GI50 [37]: < 0.0001 µM
TGI [38]: 54.5 µM
TGI [39]: 0.321 µM
GI50 [40]: > 100 µM
TGI [40]: > 100 µM
TGI [41]: 0.141 µM
TGI [42]: 2.47 µM
GI50 [43]: 0.178 µM
TGI [43]: 0.645 µM and 0.972 µM
TGI [44]: > 100 µM

Cc1cccc(Cl)c1NCC(O)CN1CCN(C)CC1 (configuration not stated)
TGI [2]: > 100 µM
TGI [3]: > 100 µM
TGI [4]: > 100 µM
TGI [45]: > 100 µM
TGI [46]: > 100 µM
TGI [5]: > 100 µM
TGI [6]: > 100 µM
TGI [7]: > 100 µM
TGI [47]: > 100 µM
TGI [9]: > 100 µM
TGI [10]: > 100 µM
TGI [48]: > 100 µM
TGI [49]: > 100 µM
TGI [11]: > 100 µM
TGI [50]: > 100 µM
TGI [13]: > 100 µM
TGI [14]: > 100 µM
TGI [15]: > 100 µM
TGI [51]: > 100 µM
TGI [52]: > 100 µM
TGI [16]: > 100 µM
TGI [17]: > 100 µM
TGI [18]: > 100 µM
TGI [19]: > 100 µM
TGI [20]: > 100 µM
TGI [21]: > 100 µM
TGI [22]: > 100 µM
TGI [53]: > 100 µM
TGI [23]: > 100 µM
TGI [24]: > 100 µM
TGI [25]: > 100 µM
TGI [54]: > 100 µM
TGI [26]: > 100 µM
TGI [55]: > 100 µM
TGI [27]: > 100 µM
TGI [28]: > 100 µM
TGI [29]: > 100 µM
TGI [30]: > 100 µM
TGI [31]: > 100 µM
TGI [32]: > 100 µM
TGI [33]: > 100 µM
TGI [35]: > 100 µM
TGI [36]: > 100 µM
TGI [38]: > 100 µM
TGI [39]: > 100 µM
TGI [40]: > 100 µM
TGI [56]: > 100 µM
TGI [41]: > 100 µM
TGI [42]: > 100 µM
TGI [43]: > 100 µM
TGI [57]: > 100 µM
TGI [58]: > 100 µM
TGI [44]: > 100 µM

CC(=O)OCC1OC(N2C(c3ccccc3)=CC(c3cccs3)C(C#N)=C2S)C(OC(C)=O)C(OC(C)=O)C1OC(C)=O (configuration not stated)
TGI [1]: > 100 µM
TGI [2]: > 100 µM
TGI [6]: > 100 µM
TGI [7]: > 100 µM
TGI [8]: > 100 µM
TGI [9]: > 100 µM
TGI [49]: > 100 µM
TGI [12]: > 100 µM
TGI [50]: > 100 µM
TGI [13]: > 100 µM
TGI [14]: > 100 µM
TGI [15]: > 100 µM
TGI [51]: > 100 µM
TGI [16]: > 100 µM
TGI [17]: > 100 µM
TGI [19]: > 100 µM
TGI [20]: > 100 µM
TGI [21]: > 100 µM
TGI [22]: > 100 µM
TGI [53]: > 100 µM
TGI [23]: > 100 µM
TGI [24]: > 100 µM
TGI [25]: > 100 µM
TGI [54]: > 100 µM
TGI [55]: > 100 µM
TGI [27]: > 100 µM
TGI [28]: > 100 µM
TGI [29]: > 100 µM
TGI [30]: > 100 µM
TGI [31]: > 100 µM
TGI [35]: > 100 µM
TGI [36]: > 100 µM
TGI [37]: > 100 µM
TGI [38]: > 100 µM
TGI [40]: > 100 µM
TGI [56]: > 100 µM
TGI [42]: > 100 µM
TGI [43]: 42.9 µM
TGI [57]: > 100 µM
TGI [44]: > 100 µM

COC1OC(CS(=O)(=O)O)C(O)C(O)C1O (configuration not stated)
TGI [1]: > 100 µM
TGI [2]: > 100 µM
TGI [3]: > 100 µM
TGI [4]: > 100 µM
TGI [45]: > 100 µM
TGI [46]: > 100 µM
TGI [5]: > 100 µM
TGI [6]: > 100 µM
TGI [7]: > 100 µM
TGI [8]: > 100 µM
TGI [47]: > 100 µM
TGI [10]: > 100 µM
TGI [48]: > 100 µM
TGI [49]: > 100 µM
TGI [11]: > 100 µM
TGI [12]: > 100 µM
TGI [50]: > 100 µM
TGI [13]: > 100 µM
TGI [14]: > 100 µM
TGI [51]: > 100 µM
TGI [52]: > 100 µM
TGI [16]: > 100 µM
TGI [17]: > 100 µM
TGI [18]: > 100 µM
TGI [19]: > 100 µM
TGI [20]: > 100 µM
TGI [21]: > 100 µM
TGI [53]: > 100 µM
TGI [23]: > 100 µM
TGI [25]: > 100 µM
TGI [54]: > 100 µM
TGI [26]: > 100 µM
TGI [55]: > 100 µM
TGI [27]: > 100 µM
TGI [28]: > 100 µM
TGI [29]: > 100 µM
TGI [30]: > 100 µM
TGI [31]: > 100 µM
TGI [34]: > 100 µM
TGI [35]: > 100 µM
TGI [38]: > 100 µM
TGI [39]: > 100 µM
TGI [40]: > 100 µM
TGI [56]: > 100 µM
TGI [59]: > 100 µM
TGI [41]: > 100 µM
TGI [42]: > 100 µM
TGI [43]: > 100 µM
TGI [57]: > 100 µM
TGI [58]: > 100 µM
TGI [44]: > 100 µM
